# Source: US20210369583A1, “COMPOSITIONS FOR PROVIDING SKIN CARE BENEFITS AND METHODS OF USE” (Danisco US Inc., priority 2018, published 2021)
# Where “and” joins values, the source holds several entries; their conditions need not be identical. Equal entries are not always repeated.
# Tests used:
# Type in all cases: cell-based
# [1] = system: Reconstructed Human Epidermis (RHE); test: Caffein diffusion test on Reconstituted Human Epidermis (RHE); settings: for caffein diffusion through RHE: systemic treatment
# Experimental: By measuring the amount of […] […] The epidermis used was a Reconstructed Human Epidermis, called “RHE”, 0-day-old, batch no 01015-444, placed in culture conditions 37° C., 5% CO2. The assay medium was the Bioalternatives maintenance medium. RHE at Day 0 (when placed at the air/liquid interface) were placed in assay medium containing or not (control) the compounds, the combination or the reference (vitamin C at 200 μg/ml). This is referred to as a systemic application, to be differentiated from a topical application. RHE were then incubated for 7 days with treatment renewal at Day 3 and Day 5. All experimental conditions were performed in n=3. At the end of incubation (Day 7), radioactive […] ([^14[…] applied on the surface of each epidermis. The radioactivity contained in subnatants was measured by liquid scintillation after 30 minutes, 1, 2, 3, 4, 5, 6, 7 and 8 hours of incubation. The barrier function is calculated according to the below formula:
# [2] = system: Normal Human Epidermal Keratinocytes (NHEK); test: Protection of keratinocytes under UV-irradiated and hyper-osmotic conditions, flow cytometry; settings: NaCl 150 mM + UVB 250 mj/cm^2
# Experimental: (§1) The type of cells use for this study were Normal Human Epidermal Keratinocytes (NHEK), Bioalternatives reference K341 used at the 3rd passage. The culture conditions were: 37° C., 5% CO2. The culture medium is referred to as “keratinocyte-SFM” supplemented with Epidermal Growth Factor (EGF) 0.25 ng/ml, Pituitary extract (PE) 25 μg/ml, Gentamycin 25 μg/ml. The assay medium was “keratinocyte-SFM” supplemented with gentamycin 25 μg/ml.
# (§2) Keratinocytes (NHEK) were seeded in 24-well plates and cultured for 24 hours in culture medium. The medium was then replaced by assay medium containing or not (control) the single osmolyte or the combination of osmolytes C1 or C2 and cells were pre-incubated for 24 hours.
# For UV-irradiated and hyper-osmotic conditions, the medium was then removed and replaced by assay medium and the cells were irradiated with UVB at 250 mJ/cm2 (+UVA at 1.6 J/cm2). The lamp used was a SOL500 Sun simulator equipped with an H2 filter (Dr. Höle, AG). After irradiation, the medium was removed and replaced by assay medium containing NaCl at 150 mM (hyperosmotic conditions) and containing the single osmolyte or the combination of osmolytes (C1 or C2) and the cells were then incubated for 48 hours. In parallel, a non-irradiated and normo-osmotic control was performed.
# (§3) At the end of incubation, culture medium was removed and the cells were rinsed with a PBS solution. The cells were then detached using trypsin treatment and transferred into tubes. After several washes in PBS/BSA 0.2%, the cells were labeled with a propidium iodide (PI) solution (staining of dead cells).
# (§4) Cell populations were then analyzed for number (total number of event per well during a fixed time), size (FSC), granularity (SSC) and viability parameters (% PI-positive cells, equivalent to % dead cells) by flow cytometry using BD FACSVerse™ flow cytometer. • Acquisition 1 represents the number of events (=number of cells) passing one by one in front of the cytometer laser over a fixed time. It doesn't distinct dead or living cells at this step. By subtracting the number of events (in hyperosmotic or irradiated condition) from the total number of events in normoosmotic conditions, it is possible to calculate the number of cells that have been lysed due to the stress conditions. • Acquisition 2, represents, on a fixed number of events, 1) the detection of the light scattered when the cells are crossing the laser, FSC-A, from which can be calculated the cell size, 2) the detection of the cells stained by Propidium Iodide (dead cells) from which can be calculated the % of viable cells.
# [3] = system: Normal Human Epidermal Keratinocytes (NHEK); test: Protection of keratinocytes under UV-irradiated conditions (UVB 250 mJ/cm2), flow cytometry
# Experimental: as §1, §2
# For UV-irradiated conditions, the medium was then removed and replaced by assay medium and the cells were irradiated with UVB at 250 mJ/cm2 (+UVA at 1.6 J/cm2). The lamp used was a SOL500 Sun simulator equipped with an H2 filter (Dr. Hole, AG). A non-irradiated control condition was performed in parallel. After irradiation, the medium was removed and replaced by assay medium containing or not (control) the single osmolyte or the combination of osmolytes (C1 or C2) and the cells were incubated for 48 hours.
# as §3, §4
# [4] = system: Normal Human Epidermal Keratinocytes (NHEK); test: Osmoprotective effect on keratinocytes under hyper-osmotic conditions (NaCl 150 mM), flow cytometry
# Experimental: as §1, §2
# For hyper-osmotic conditions, the medium was removed and replaced by assay medium containing NaCl at 150 mM and containing the single osmolyte or the combination of osmolytes (C1 or C2). The cells were then incubated for 48 hours. In parallel, a normo-osmotic control (no osmotic stress control) was performed.
# as §3, §4
structure (smiles),measurement,setting,value
O=C(O)[C@@H]1CCCN1 [L-Proline],Barrier function % Control,"[1]; 0.5 hrs, 3 mg/ml",96%
same,Mean [14C]-caffein (cpm),"[1]; 0.5 hrs, 3 mg/ml",20720 cpm
same,[14C]-caffein % Control,"[1]; 0.5 hrs, 3 mg/ml",105%
same,Barrier function % Control,"[1]; 0.5 hrs, 10 mg/ml",98%
same,Mean [14C]-caffein (cpm),"[1]; 0.5 hrs, 10 mg/ml",20193 cpm
same,[14C]-caffein % Control,"[1]; 0.5 hrs, 10 mg/ml",103%
same,Barrier function % Control,"[1]; 1 hrs, 3 mg/ml",97%
same,Mean [14C]-caffein (cpm),"[1]; 1 hrs, 3 mg/ml",47352 cpm
same,[14C]-caffein % Control,"[1]; 1 hrs, 3 mg/ml",104%
same,Barrier function % Control,"[1]; 1 hrs, 10 mg/ml",100%
same,Mean [14C]-caffein (cpm),"[1]; 1 hrs, 10 mg/ml",45495 cpm
same,[14C]-caffein % Control,"[1]; 1 hrs, 10 mg/ml",100%
same,Barrier function % Control,"[1]; 2 hrs, 3 mg/ml",94%
same,Mean [14C]-caffein (cpm),"[1]; 2 hrs, 3 mg/ml",106026 cpm
same,[14C]-caffein % Control,"[1]; 2 hrs, 3 mg/ml",106%
same,Barrier function % Control,"[1]; 2 hrs, 10 mg/ml",98%
same,Mean [14C]-caffein (cpm),"[1]; 2 hrs, 10 mg/ml",102027 cpm
same,[14C]-caffein % Control,"[1]; 2 hrs, 10 mg/ml",102%
same,Barrier function % Control,"[1]; 3 hrs, 3 mg/ml",93%
same,Mean [14C]-caffein (cpm),"[1]; 3 hrs, 3 mg/ml",147545 cpm
same,[14C]-caffein % Control,"[1]; 3 hrs, 3 mg/ml",108%
same,Barrier function % Control,"[1]; 3 hrs, 10 mg/ml",98%
same,Mean [14C]-caffein (cpm),"[1]; 3 hrs, 10 mg/ml",140203 cpm
same,[14C]-caffein % Control,"[1]; 3 hrs, 10 mg/ml",102%
same,Barrier function % Control,"[1]; 4 hrs, 3 mg/ml",93%
same,Mean [14C]-caffein (cpm),"[1]; 4 hrs, 3 mg/ml",169001 cpm
same,[14C]-caffein % Control,"[1]; 4 hrs, 3 mg/ml",107%
same,Barrier function % Control,"[1]; 4 hrs, 10 mg/ml",97%
same,Mean [14C]-caffein (cpm),"[1]; 4 hrs, 10 mg/ml",162571 cpm
same,[14C]-caffein % Control,"[1]; 4 hrs, 10 mg/ml",103%
same,Barrier function % Control,"[1]; 5 hrs, 3 mg/ml",93%
same,Mean [14C]-caffein (cpm),"[1]; 5 hrs, 3 mg/ml",184911 cpm
same,[14C]-caffein % Control,"[1]; 5 hrs, 3 mg/ml",107%
same,Barrier function % Control,"[1]; 5 hrs, 10 mg/ml",98%
same,Mean [14C]-caffein (cpm),"[1]; 5 hrs, 10 mg/ml",176461 cpm
same,[14C]-caffein % Control,"[1]; 5 hrs, 10 mg/ml",102%
same,Barrier function % Control,"[1]; 6 hrs, 3 mg/ml",94%
same,Mean [14C]-caffein (cpm),"[1]; 6 hrs, 3 mg/ml",190819 cpm
same,[14C]-caffein % Control,"[1]; 6 hrs, 3 mg/ml",106%
same,Barrier function % Control,"[1]; 6 hrs, 10 mg/ml",99%
same,Mean [14C]-caffein (cpm),"[1]; 6 hrs, 10 mg/ml",181674 cpm
same,[14C]-caffein % Control,"[1]; 6 hrs, 10 mg/ml",101%
same,Barrier function % Control,"[1]; 7 hrs, 3 mg/ml",94%
same,Mean [14C]-caffein (cpm),"[1]; 7 hrs, 3 mg/ml",199859 cpm
same,[14C]-caffein % Control,"[1]; 7 hrs, 3 mg/ml",106%
same,Barrier function % Control,"[1]; 7 hrs, 10 mg/ml",99%
same,Mean [14C]-caffein (cpm),"[1]; 7 hrs, 10 mg/ml",190843 cpm
same,[14C]-caffein % Control,"[1]; 7 hrs, 10 mg/ml",101%
same,Barrier function % Control,"[1]; 8 hrs, 3 mg/ml",100% and 99%
same,Barrier function (% L-Proline 3 mg/ml),"[1]; 8 hrs, 3 mg/ml",104%
same,Barrier function (% L-Proline 10 mg/ml),"[1]; 8 hrs, 3 mg/ml",100%
same,Mean [14C]-caffein (cpm),"[1]; 8 hrs, 3 mg/ml",193655 cpm and 194941 cpm
same,[14C]-caffein % Control,"[1]; 8 hrs, 3 mg/ml",100% and 101%
same,Barrier function % Control,"[1]; 8 hrs, 10 mg/ml",95%
same,Mean [14C]-caffein (cpm),"[1]; 8 hrs, 10 mg/ml",203011 cpm
same,[14C]-caffein % Control,"[1]; 8 hrs, 10 mg/ml",105%
same,caffein diffusion through RHE,[1]; 3 mg/ml,did not decrease caffein diffusion
same,caffein diffusion through RHE,[1]; 10 mg/ml,did not decrease caffein diffusion
same,"Cell size, % hyperosmotic control",[2]; 3 mg/ml,102%
same,Mean cell size FSC-A (au),[2]; 3 mg/ml,69601 au
same,"Cell size, % hyperosmotic control",[2]; 10 mg/ml,100%
same,Mean cell size FSC-A (au),[2]; 10 mg/ml,68169 au
same,viability at 3000 µg/mL,"[3]; Homo sapiens, NHEK, light or radiation study, UVB 250 mj/cm^2, 3 mg/ml, read-out: Cell viability, % hyperosmotic control",103%
same,effect on cells submitted to UVB irradiation,[3]; UVB 250 mJ/cm^2 alone or in combination with hyperosmotic stress,no clear effect
same,"Cell size, % hyperosmotic control","[3]; UVB 250 mj/cm^2, 3 mg/ml",110%
same,Mean % viable cells = 100-% PI-positive cells = 100-% dead cells,"[3]; UVB 250 mj/cm^2, 3 mg/ml",86.4%
same,Mean cell size FSC-A (au),"[3]; UVB 250 mj/cm^2, 3 mg/ml",100519 au
same,"Cell size, % hyperosmotic control","[3]; UVB 250 mj/cm^2, 10 mg/ml",110%
same,Mean cell size FSC-A (au),"[3]; UVB 250 mj/cm^2, 10 mg/ml",101243 au
same,% cell size difference compared to control hyperosmotic stress condition under 150 mM NaCl,[4]; 3 mg/ml total osmolytes,+4%
same,% cell size difference compared to control hyperosmotic stress condition under 150 mM NaCl,[4]; 10 mg/ml total osmolytes,+13%
same,viability at 3000 µg/mL,"[4]; Homo sapiens, NHEK, NaCl 150 mM 48 h, 3 mg/ml, read-out: Cell viability, % hyperosmotic control",143%
same,"Lysed cells, % normo-osmotic control (% cell lysis)","[4]; NaCl 150 mM 48 h, 3 mg/ml",67.2%
same,Lysed cells: Mean number of event per well normo-osmotic control − Mean number of event per well hyperosmotic conditions,"[4]; NaCl 150 mM 48 h, 3 mg/ml",73197
same,Mean % viable cells = 100-% PI-positive cells = 100-% dead cells,"[4]; NaCl 150 mM 48 h, 3 mg/ml",69.6%
same,Mean cell size FSC-A (au),"[4]; NaCl 150 mM 48 h, 3 mg/ml",68417 au
same,"Total number of events per well, % hyperosmotic control","[4]; NaCl 150 mM 48 h, 3 mg/ml",130%
same,"Total number of events per well, Mean (au)","[4]; NaCl 150 mM 48 h, 3 mg/ml",18676 au
same,"Cell size, % hyperosmotic control","[4]; NaCl 150 mM 48 h, 10 mg/ml",113%
same,"Lysed cells, % normo-osmotic control (% cell lysis)","[4]; NaCl 150 mM 48 h, 10 mg/ml",41.7% and 67.2%
same,Lysed cells: Mean number of event per well normo-osmotic control − Mean number of event per well hyperosmotic conditions,"[4]; NaCl 150 mM 48 h, 10 mg/ml",56995
same,Mean cell size FSC-A (au),"[4]; NaCl 150 mM 48 h, 10 mg/ml",74581 au
same,"Total number of events per well, % hyperosmotic control","[4]; NaCl 150 mM 48 h, 10 mg/ml",243%
same,"Total number of events per well, Mean (au)","[4]; NaCl 150 mM 48 h, 10 mg/ml",34878 au
